Test results published in a melting point compilation (Tetko et al.; mined from patent text by program, amines drawn as free bases though some values may be those of a salt).

With O=C(O)C1Cc2c([nH]c3ccccc23)CN1C(=S)SCCc1ccccc1 (stereo not drawn) the melting point was 89 to 90 °C. CCOC(=O)c1cn(C)nc1Nc1ccc(F)cc1[N+](=O)[O-] showed a melting point of 162 °C. With O=C(O)c1ccc(CC2COc3ccc(OCc4ccc5ccccc5n4)cc3C2O)cc1 (stereo not drawn) the melting point was 199 to 201 °C. COc1ccc(C(=O)Nc2ccccc2)cc1Nc1cccc([N+](=O)[O-])c1 showed a melting point of 220 to 221 °C. O=C(O)CNC(=O)CC1=C(n2nc(-c3c(-c4ccccc4)nn4ccccc34)ccc2=O)CCCC1 gave a melting point of 190 to 192 °C. CON=C1CCC(C)(C)c2cc(C)c(-c3cc(C=C4SC(=O)NC4=O)ccc3N(C)C)cc21 gave a melting point of 254 to 256 °C. O=C1CCC2(Cc3ccc(Br)cc3)C(=O)N(c3cc(Cl)cc(Cl)c3)C(=O)N12 (stereo not drawn) showed a melting point of 230 °C. Work on C=CC1CCC2C3CCC4=CC(O)C=CC4(C)C3CCC12C (stereo not drawn) yielded a melting point of 98 to 128 °C. Molecule CC1(C)c2cc(OS(C)(=O)=O)ccc2OC1OC(=O)c1ccccc1 (stereo not drawn) has a melting point of 102 to 104 °C. In the case of O=C(NC1c2cc(NC(=O)N3CCCC3)ccc2CCC1O)c1ccc(Cl)c(Cl)c1 (stereo not drawn), the melting point is reported as 206 to 208 °C. In the case of CC(C)CCNC(=O)c1ccccc1-c1ccccc1CNS(=O)(=O)c1cccc(F)c1, the melting point is reported as 141 °C. In the case of Oc1ccccc1C=Nc1cccc(Cl)c1Cl, the melting point is reported as 89 to 90 °C. With CC(C)(C)OC(=O)N1CCCN(c2ccc([N+](=O)[O-])cc2)CC1 the melting point was 128 to 130 °C. With COc1ccccc1NC(=O)NCc1cccc2c1C(=O)N(C1CCC(=O)NC1=O)C2=O (stereo not drawn) the melting point was 214 to 216 °C. With CCC1CCCCN1C(=O)C=Cc1c(-c2cccc(NC(=O)OC)c2)nn2ccccc12 (stereo not drawn) the melting point was 143 to 145 °C. Molecule COc1cc(C(=O)N2CCN(C(=O)/C=C/c3cccc(-c4cc(OC)c(OC)c(OC)c4)c3)CC2)cc(OC)c1OC has a melting point of 149 to 151 °C. In the case of CC(=O)NC[C@H]1CN(c2ccc(N3CCC(n4nnnc4CC(=O)N4CCOCC4)CC3)c(F)c2)C(=O)O1, the melting point is reported as 146 to 148 °C. For CC(C)(C)OC(=O)N1CCC[C@H](COc2ccccc2O)C1, the melting point was 98 to 101 °C. With CCOCCOC(=O)C(=O)Nc1nc(-c2ccc(C(C)(C)C)cc2)cs1 the melting point was 158 to 160 °C. Molecule COc1ccc(C(SC)c2ccc(OC)cc2)cc1 has a melting point of 62 to 63 °C. Molecule COc1ccc(-c2ccccc2)cc1NC(=O)c1ncc[nH]1 has a melting point of 276 °C. With CC(=O)Oc1ccc(C=C2SC(=O)NC2=O)cc1 the melting point was 238 to 240 °C. Molecule COc1nc(C)nc(NC(=O)NS(=O)(=O)c2cc(OC(F)F)ccc2OC(F)F)n1 has a melting point of 113 °C. CC(C)(C)[Si](C)(C)O[C@@H]1C[C@]2(O)C[C@@H](OC2=O)C1=O gave a melting point of 92 to 95 °C. With CC(C)C[C@H](NC(=O)OCc1ccccc1)C(=O)N[C@@H](Cc1ccccc1)C(=O)CS(C)=O (stereo partly drawn) the melting point was 97 to 102 °C. COc1ccc(Nc2nc(NC(CO)CO)nc(N(C)C3CCN(C)CC3)n2)cc1Cl showed a melting point of 84 °C. In the case of CC(C)(C)Nc1nc(C(F)(F)F)c(C(=O)Cl)o1, the melting point is reported as 52 to 60 °C. With CCCCCCc1ccc(C(=O)CCCCC(=O)O)cc1 the melting point was 77 to 79 °C. CS(=O)(=O)c1ccc(-c2cnn(-c3ccc(F)cc3)c(=O)c2COc2cccc(F)c2)cc1 showed a melting point of 142 to 144 °C. In the case of Brc1ccc(-n2c(-c3ccccc3)ccc2-c2ccccc2)cc1, the melting point is reported as 218 to 219 °C. Cc1cccc2c1oc1c(NC(=O)c3ccccn3)n(C)nc12 gave a melting point of 167 to 168 °C. Molecule CC(=O)OCC1OC(ONc2ccc(C)cc2)C(OC(C)=O)C(OC(C)=O)C1OC(C)=O (stereo not drawn) has a melting point of 93 °C. CCCc1nc2c(N)nc3ccccc3c2n1CCCCN(OC)C(C)=O gave a melting point of 138 to 140 °C. Cn1c(C(F)(F)F)cc(=O)n(-c2ccc3snc(C4OCC5(CO4)CO5)c3c2)c1=O (stereo not drawn) showed a melting point of 203 to 206 °C. CS(=O)(=O)c1ccc(-c2cn(-c3ccccc3)nc2C(=O)O)cc1 gave a melting point of 207 to 208 °C. Molecule CC(C)(OCc1nn(Cc2ccccc2)c2ccccc12)C(=O)N1CCOCC1 has a melting point of 135 to 137 °C. With CC(c1ccc(NC=O)cc1)n1ccnc1 (stereo not drawn) the melting point was 129 °C. Work on CC(C)(C)c1cc(CCc2ccccc2NC(=O)NC2CCN(Cc3ccccc3F)CC2)cc(C(C)(C)C)c1O yielded a melting point of 136 to 137 °C. Work on Cc1nnc(NCCCOc2cccc(CN3CCCCC3)c2)n1C yielded a melting point of 143 to 144 °C. Molecule C=C(C)c1cc(-c2ccc(OCCNC(N)=O)cc2)n(-c2ccc(OC)nc2)n1 has a melting point of 94 to 98 °C. For CCCCS(=O)(=O)Nc1ccc(I)cc1, the melting point was 80 to 81 °C. For CN1c2cc(Cl)ccc2-c2nc3ccccc3c3cccc1c23, the melting point was 272 to 274 °C. With COc1ccc(S(=O)(=O)Nc2ccccc2/C=C/c2ccccn2)cc1 the melting point was 137 to 142 °C. With O=C(O)c1ccccc1NC1CCOC1=O (stereo not drawn) the melting point was 197 to 198 °C. With CCSc1ccc(-c2cnccn2)c2c1C(=O)CC(C)C2 (stereo not drawn) the melting point was 152 to 154 °C. Molecule NS(=O)(=O)c1cc2[nH]c(CO)nc2cc1Cl has a melting point of 247 to 250 °C. With Nc1nc2c(ncn2C(c2ccccc2)(c2ccccc2)c2ccccc2)c(=O)[nH]1 the melting point was 268 to 270 °C. In the case of COc1ccc2cccc(/C(CNC(C)=O)=N/O)c2c1, the melting point is reported as 136 to 138 °C. CCCCCCOc1ccc(S(=O)(=O)N(CC(=O)NO)CC(C)C)cc1 gave a melting point of 108 to 110 °C. In the case of CCCCCCCCC(CC(=O)Nc1ccccc1)CC(C)[N+](=O)[O-] (stereo not drawn), the melting point is reported as 71 to 72 °C. In the case of CN(C)C(=S)Oc1ccccc1C#N, the melting point is reported as 112 °C. CCOC(=O)C(C=O)c1csc(NC=O)n1 (stereo not drawn) showed a melting point of 179 to 180 °C. Work on Cc1cc(C)c2c(n1)CC(c1ccccc1)CC2=O (stereo not drawn) yielded a melting point of 97 to 99 °C. In the case of CS(=O)(=O)c1ccc(C2=C(c3ccccc3)CC2)cc1, the melting point is reported as 73 to 75 °C. CC[C@]12CC[C@H]3[C@@H](CC(=C(Br)Br)C4=CC(=O)CC[C@@H]43)[C@@H]1CCC2=O gave a melting point of 149 to 153 °C. With COc1ccc(C2(C#N)CCC(C(=O)O)CC2)c2c1oc1ccccc12 (stereo not drawn) the melting point was 194 to 196 °C. With CCOC(=O)CN(c1cccc2cc(-c3nccs3)[nH]c12)S(=O)(=O)c1cccs1 the melting point was 135 to 137 °C. CC(C)(C)C1=CC(=O)C2=C(CCCC2)C1=O gave a melting point of 50 to 52 °C. For O=C1OC(c2ccccc2)(c2ccccc2)C2CN(S(=O)(=O)/C=C/c3ccc(F)cc3)CCN12 (stereo not drawn), the melting point was 248 to 249 °C. Cc1cc(SCc2ccc(OCc3ccc(C(C)(C)C)cc3)cc2)ccc1OCC(=O)O showed a melting point of 135 to 137 °C. In the case of COC(=O)c1ccc(Cc2cccc3ccc(C(N)=O)cc23)c(OC)c1, the melting point is reported as 215 to 216 °C. CCc1nc2c(cnn2CC)c(NC2CCOCC2)c1CNC(=O)c1cccc(C(=O)NCc2ccc(Cl)c(-c3cccc(CN4CCN(C)CC4)c3)c2)c1 gave a melting point of 112 to 114 °C. Work on Cc1ccc2nc(SCc3ccccn3)n(-c3ccccc3)c(=O)c2c1 yielded a melting point of 167 to 169 °C. With CCn1cnc2c(Nc3cccc(Cl)c3)nc(N3CCCC(N)C3)nc21 (stereo not drawn) the melting point was 165 °C. COc1ccc(Oc2ccccc2NS(C)(=O)=O)cc1 showed a melting point of 81 to 83 °C. Molecule Cc1ccccc1OCCN1CCC(CNc2nc3ccccc3s2)CC1 has a melting point of 126 °C. In the case of CC(N)CCc1ccc(C(N)=O)s1 (racemic), the melting point is reported as 65 to 75 °C. Molecule CCOC(=O)c1[nH]c2cc3[nH]c(C)c(C(=O)OCC)c3c(C)c2c1C has a melting point of 216 °C. With COc1cc(C)c(S(=O)(=O)N(C)C)cc1[N+](=O)[O-] the melting point was 130 to 132 °C. For COc1cc(CN2CCN(c3ccc(C(=O)NC4CC4)cc3F)CC2)cc2c1OC(C)C(=O)N2 (stereo not drawn), the melting point was 233 °C. For Cc1cc(-c2cccc(-c3ccc(CCCNC4CCc5ccccc5C4)cc3)n2)c(C)[nH]1 (stereo not drawn), the melting point was 120 to 130 °C. With O=C1CCCC2=C1C(c1cccc([N+](=O)[O-])c1)C1=C(CCCC1)N2 (stereo not drawn) the melting point was 218 to 221 °C. With O=C(O)c1ccc(-c2ccc(F)cc2)cc1 the melting point was 138 to 141 °C. COc1ccc2nc(SC(C#N)c3ncc(C)c(OC)c3C)[nH]c2c1 (stereo not drawn) showed a melting point of 193 to 197 °C. Molecule CCOCn1c(Cl)c(C#N)c(Cl)c1-c1ccc(Cl)c(Cl)c1 has a melting point of 106 to 109 °C. Molecule CCOCc1nc2c(N)nc3ccccc3c2n1CCOCCNS(=O)(=O)C(C)C has a melting point of 139 to 142 °C. In the case of CCOC(=O)c1cn(-c2cccc(Oc3ccc([N+](=O)[O-])cc3)c2)cn1, the melting point is reported as 162 to 163 °C. In the case of CS(=O)(=O)c1nccc(-n2cncn2)n1, the melting point is reported as 135 to 136 °C. O=C1NC(=O)c2ccc(Br)cc2/C1=C/NCc1cccnc1 showed a melting point of 299 to 300 °C. Molecule Nc1cc2c3c(cccc3c1Cl)C(=O)N(O)C2=O has a melting point of 271 to 275 °C. For CCCNC(=O)c1nc(-c2ccccc2)c(-c2ccc(=O)n(C)n2)s1, the melting point was 108 to 109 °C. With CC(CO)Oc1cc(Oc2ccc(C(=O)N3CCC3)cc2F)cc(C(=O)O)c1 (stereo not drawn) the melting point was 133 °C. Work on COC(=O)[C@@H]1CCCN1C(=O)CCC(=O)c1ccccc1 yielded a melting point of 66 to 70 °C. Work on COc1cc(COc2nn(Cc3ccccc3)cc2C(=O)O)ccc1OCc1nc(-c2ccco2)oc1C yielded a melting point of 167 to 168 °C. Molecule Cc1cccc(Nc2cc(Nc3cccc(OCC(=O)N(CCO)CCO)c3)ncn2)c1 has a melting point of 112 to 113 °C. CC1(C)CCCC(C)(C)N1c1nc(Cl)cc(Cl)n1 gave a melting point of 89 to 90 °C. Work on CC1(C)N=C(c2ccccc2Cl)c2cc([N+](=O)[O-])ccc2-n2cnnc21 yielded a melting point of 262 °C. For O=C(O)C(Cc1ccccc1)C(O)CCCCCOCc1ccccc1 (stereo not drawn), the melting point was 66 to 67 °C. CC(=O)N(C(C)=O)c1cscn1 showed a melting point of 55 °C. Work on c1ccc(CN2C[C@H]3CCCC[C@@]3(Cc3ccccc3)C2)cc1 (relative stereo) yielded a melting point of 156 to 158 °C. With CCCCCCCc1ccc(CC2C=CC(Oc3ccc(C(=O)O)o3)=C3N=C4CCCCC4=C32)cc1 (stereo not drawn) the melting point was 164 to 165 °C. For Cc1ccccc1-c1cc2cnc(N)nc2nc1NC(=O)NC(C)(C)C, the melting point was 195 to 197 °C. O=C(CC1(O)C(=O)N(Cc2ccc(Cl)cc2)c2ccccc21)C1CC1 (stereo not drawn) gave a melting point of 102 to 103 °C. For COc1ccc(-c2noc3c2C(c2cc(OC)c(OC)c(OC)c2)C2=C(COC2=O)N3)cc1 (stereo not drawn), the melting point was 218 to 219 °C. Work on c1ccc(-c2ccc(-c3cn([C@H]4CN5CCC4CC5)nn3)s2)cc1 yielded a melting point of 184 °C. CC(=O)OC1CSC(Sc2ccc(S(=O)(=O)c3ccccc3)cc2)C(OC(C)=O)C1OC(C)=O (stereo not drawn) gave a melting point of 159 °C. CCCc1nc2c(N)nc3cc(-c4cccnc4)ccc3c2n1CCCCNC(=O)OC(C)(C)C showed a melting point of 136 to 138 °C. CN1C(=O)C(=Cc2cc(O)c(O)c([N+](=O)[O-])c2)SC1=S gave a melting point of 274 to 276 °C.
